# From patent publication US20230159496A1, “COMPOUNDS AND METHODS FOR MODULATING SPLICING” (REMIX THERAPEUTICS INC., priority 2020, published 2023)
# Where two headings read alike, the source gives them in different places.
# Columns and labels:
# Type in all cases: cell-based
# HTT CJ mRNA = experiment: Gene panel canonical junction qPCR assay, HTT; conditions: decrease in CJ mRNA levels, gene panel; read-out: HTT IC50
# Summary of the method: (§1)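 A673 or K562 cells were treated for 24 h at 37 °C with an 11-point 3-fold dilution, top dose 10 uM, DMSO ≤0.25%. Canonical junction mRNA in lysates was quantified by one-step RT-qPCR and normalized to GAPDH, GUSB or PPIA.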
# SMN2 CJ mRNA = experiment: Gene panel canonical junction qPCR assay, SMN2; conditions: decrease in CJ mRNA levels, gene panel; read-out: SMN2 IC50
# Summary of the method: as §1
# HTT mRNA = experiment: Splicing assay (RT-qPCR) monitoring HTT canonical junction (CJ) and alternative junction (AJ) mRNA isoforms; conditions: A673 or K562 cells, 24 h treatment, top dose 10 uM
# Summary of the method: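 A673 or K562 cells treated 24 h at 37 °C with an 11-point 3-fold dilution (top 10 uM final, DMSO ≤0.25%). Lysates assayed by one-step RT-qPCR for HTT CJ and AJ isoforms, normalized to GAPDH, GUSB (K562) or PPIA (A673).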
# Target C CJ mRNA = experiment: Gene panel canonical junction qPCR assay, Target C; conditions: decrease in CJ mRNA levels, gene panel; read-out: Target C IC50
# Summary of the method: as §1
# [1] = decrease in CJ mRNA (50% response), read-out: HTT CJ AC50
# [2] = increase in AJ mRNA (50% response), read-out: HTT AJ AC50
IC50 (HTT CJ mRNA),IC50 (SMN2 CJ mRNA),IC50 (Target C CJ mRNA),SMILES,AC50 (HTT mRNA; [1]),AC50 (HTT mRNA; [2])
1000 to 10000 nM,< 100 nM,1000 to 10000 nM,"CN1CCC(n2cnc3cc(-c4cc(F)c5nn(C)cc5c4)ccc3c2=O)CC1 [Compound 209, 7-(7-fluoro-2-methyl-2H-indazol-5-yl)-3-(1-methylpiperidin-4-yl)quinazolin-4(3H)-one]",1000 to 10000 nM,100 to 1000 nM
1000 to 10000 nM,1000 to 10000 nM,1000 to 10000 nM,Cc1cn2cc(-c3ccc4c(c3)CCN(C3CCNCC3)C4=O)c(C)cc2n1 [Compound 218],1000 to 10000 nM,1000 to 10000 nM
1000 to 10000 nM,1000 to 10000 nM,1000 to 10000 nM,Cc1nc2c(F)cc(-c3ccc4c(=O)n(C5CCN(C)CC5)cnc4c3)cc2s1 [Compound 301],1000 to 10000 nM,1000 to 10000 nM
< 100 nM,< 100 nM,< 100 nM,"Cc1cn2cc(-c3ccc4c(=O)n(C5CCNCC5)ccc4c3)cc(F)c2n1 [Compound 276, 6-(8-fluoro-2-methylimidazo[1,2-a]pyridin-6-yl)-2-(piperidin-4-yl)isoquinolin-1(2H)-one]",< 100 nM,< 100 nM
100 to 1000 nM,< 100 nM,1000 to 10000 nM,"CC[C@@H]1C[C@H](n2ncc3cc(-c4cc(C)c5nc(C)cn5n4)ccc3c2=O)CCN1 [Compound 304, 6-{2,8-dimethylimidazo[1,2-b]pyridazin-6-yl}-2-[(2R,4R)-2-ethylpiperidin-4-yl]phthalazin-1-one]",1000 to 10000 nM,1000 to 10000 nM
< 100 nM,< 100 nM,100 to 1000 nM,Cc1cn2nc(-c3ccc4c(=O)n([C@H]5CCN(C)[C@H](C)C5)ncc4c3)cc(C)c2n1 [Compound 278],< 100 nM,< 100 nM
> 10000 nM,100 to 1000 nM,> 10000 nM,Cc1cn2cc(-c3ccc4c(=O)n(C5CCNCC5)cnc4c3)c(C)cc2n1 [Compound 244],> 10000 nM,> 10000 nM
1000 to 10000 nM,100 to 1000 nM,1000 to 10000 nM,Cc1cn2nc(-c3ccc4c(c3)CCN(C3CCNCC3)C4=O)nc2c(C)n1 [Compound 222],1000 to 10000 nM,1000 to 10000 nM
100 to 1000 nM,100 to 1000 nM,100 to 1000 nM,Cc1cn2nc(-c3ccc4nc(N5CCNC6(CC6)C5)[nH]c(=O)c4c3)cc(C)c2n1 [Compound 190],100 to 1000 nM,100 to 1000 nM
1000 to 10000 nM,< 100 nM,1000 to 10000 nM,Cc1nc2c(F)cc(-c3ccc4c(c3)CCN(C3CCNCC3)C4=O)cc2o1 [Compound 215],1000 to 10000 nM,1000 to 10000 nM
> 10000 nM,100 to 1000 nM,> 10000 nM,Cc1cn2cc(-c3ccc4c(c3)CCN(C3CCNCC3)C4=O)nc2c(C)n1 [Compound 221],> 10000 nM,> 10000 nM
100 to 1000 nM,< 100 nM,100 to 1000 nM,Cc1cn2nc(-c3ccc4c(=O)n(C5CCNCC5)cnc4c3)cc(C)c2n1 [Compound 181],100 to 1000 nM,100 to 1000 nM
> 10000 nM,> 10000 nM,> 10000 nM,Cc1cn2cc(-c3ccc4nc(NC5CCNCC5)[nH]c(=O)c4c3)cc(F)c2n1 [Compound 238],> 10000 nM,> 10000 nM
1000 to 10000 nM,100 to 1000 nM,> 10000 nM,"Cc1cn2nc(-c3ccc4c(=O)n(C5CCNC5)ncc4c3)cc(C)c2n1 (stereo not drawn) [Compound 264, 6-{2,8-dimethylimidazo[1,2-b]pyridazin-6-yl}-2-(pyrrolidin-3-yl)phthalazin-1-one]",1000 to 10000 nM,1000 to 10000 nM
1000 to 10000 nM,1000 to 10000 nM,1000 to 10000 nM,"Cc1cn2nc(-n3cnc4cc(N5CCNCC5)ccc4c3=O)cc(C)c2n1 [Compound 241, 3-(2,8-dimethylimidazo[1,2-b]pyridazin-6-yl)-7-(piperazin-1-yl)quinazolin-4(3H)-one]",1000 to 10000 nM,1000 to 10000 nM
1000 to 10000 nM,100 to 1000 nM,> 10000 nM,Cc1cn2cc(-c3ccc4c(=O)n(C5CCNCC5)ncc4c3)ncc2n1 [Compound 255],1000 to 10000 nM,1000 to 10000 nM
> 10000 nM,1000 to 10000 nM,1000 to 10000 nM,"CN1CCN(c2ccc3nc(-c4ccc5nn(C)cc5c4)[nH]c(=O)c3c2)CC1 [Compound 108, 2-(2-methyl-2H-indazol-5-yl)-6-(4-methylpiperazin-1-yl)quinazolin-4(3H)-one]",> 10000 nM,> 10000 nM
1000 to 10000 nM,100 to 1000 nM,1000 to 10000 nM,Cc1cn2cc(-c3ccc4c(=O)n(C5CCN(C)CC5)cnc4c3)ncc2n1 [Compound 308],1000 to 10000 nM,1000 to 10000 nM
100 to 1000 nM,< 100 nM,100 to 1000 nM,"Cn1cc2cc(-c3ccc4c(=O)n(C5CCNCC5)cnc4c3)cc(F)c2n1 [Compound 206, 7-(7-fluoro-2-methyl-2H-indazol-5-yl)-3-(piperidin-4-yl)quinazolin-4(3H)-one]",100 to 1000 nM,100 to 1000 nM
1000 to 10000 nM,< 100 nM,1000 to 10000 nM,"Cc1cn2cc(-c3ccc4c(c3)CCN(C3CCNCC3)C4=O)cc(F)c2n1 [Compound 247, 6-[8-fluoro-2-methylimidazo[1,2-a]pyridin-6-yl]-2-(piperidin-4-yl)-3,4-dihydroisoquinolin-1-one]",1000 to 10000 nM,1000 to 10000 nM
100 to 1000 nM,< 100 nM,100 to 1000 nM,Cc1cn2nc(-c3ccc4c(=O)n(C5CCNC(C)(C)C5)ncc4c3)cc(C)c2n1 (stereo not drawn) [Compound 279],100 to 1000 nM,100 to 1000 nM
1000 to 10000 nM,< 100 nM,1000 to 10000 nM,Cc1cn2cc(-c3ccc4c(c3)CCN(C3CCNCC3)C4=O)cc(Cl)c2n1 [Compound 216],1000 to 10000 nM,1000 to 10000 nM
100 to 1000 nM,< 100 nM,1000 to 10000 nM,"Cc1cc(-c2cc(F)c3c(=O)n(C4CCN(C)CC4)cnc3c2)cc2cn(C)nc12 [Compound 233, 7-(2,7-dimethyl-2H-indazol-5-yl)-5-fluoro-3-(1-methylpiperidin-4-yl)quinazolin-4(3H)-one]",100 to 1000 nM,100 to 1000 nM
1000 to 10000 nM,1000 to 10000 nM,1000 to 10000 nM,Cn1cc2cc(-c3ccc4c(=O)n(C5CCNCC5)ncc4c3)cc(F)c2n1 [Compound 249],1000 to 10000 nM,1000 to 10000 nM
1000 to 10000 nM,100 to 1000 nM,> 10000 nM,CCN1CCC(N2CCc3cc(-c4cc(C)c5nc(C)cn5n4)ccc3C2=O)CC1 [Compound 270],1000 to 10000 nM,1000 to 10000 nM
1000 to 10000 nM,100 to 1000 nM,1000 to 10000 nM,Cc1cn2cc(-c3ccc4c(=O)n(C5CCNCC5)cnc4c3)nc2c(C)n1 [Compound 286],1000 to 10000 nM,1000 to 10000 nM

SMILES,IC50 (HTT CJ mRNA),IC50 (SMN2 CJ mRNA),IC50 (Target C CJ mRNA),AC50 (HTT mRNA; [1]),AC50 (HTT mRNA; [2])
"CN1C2C=C(c3ccc4c(=O)n(-c5ccc6nn(C)cc6c5)cnc4c3)CC1CC2 (stereo not drawn) [Compound 161, 3-(2-methyl-2H-indazol-5-yl)-7-(8-methyl-8-azabicyclo[3.2.1]oct-2-en-3-yl)quinazolin-4(3H)-one]",> 10000 nM,> 10000 nM,> 10000 nM,> 10000 nM,> 10000 nM
